Like-named read-outs stand apart in the source and are kept apart here.
Tests used:
Assay type in all cases: physicochemical
[1] = Stability test in (sealed) condition at 60° C., purity by HPLC; details: for Purity (60° C., sealed) After 4 weeks: sealed brown glass bottle; for Purity (60° C., sealed) Initial stage value: before storage
Experimental: Each test sample of an amorphous compound 1 prepared by a modification method, an amorphous compound 2 obtained by forming a free base of the amorphous compound 1 into hydrochloride in the same method as in Example 1 of Patent Literature 1, a crystal of the compound 1, which was prepared by the method described in Example 1 of the present specification, was charged into a brown glass bottle by each amount of 10 mg and preserved at 60° C., and the purities were compared after 4 weeks. […] Not that the purity measurement was carried out in the following conditions.
Column: Develosil CN-5 (Nomura Chemical), 250 mm×4.6 mmφ
Mobile phase: 20 mM NaH2PO4 buffer (pH 6.9)/MeCN=80/20
Wavelength: UV 247 nm and 220 nm
Concentration of test sample: 100 μg/ml (H2O)

[2] = Solubility of the crystal in water; details: for solubility: 20 °C, thermodynamic from solid
Experimental: 1. The crystal has peaks around at 9.8°, 17.4°, 18.6°, 25.3°, and 25.8° as diffraction angles represented by 2θ in the powder X-ray diffraction pattern. 2. The crystal has absorption recognized around at wave numbers of 3340 cm^−1, 1664 cm^−1, and 1654 cm^−1 in the infrared absorption spectrum. 3. The crystal has a heat adsorption peak around at 120° C. in the differential scanning calorimetry (DSC). 4. The crystal has a degree of solubility to water of 1 g/ml or higher and the solubility is classified into “very soluble” according to the Japanese Pharmacopoeia.
Solubility (20° C.): >1 g/ml (very soluble)

[3] = Hygroscopicity test in condition of 66% RH (20° C.)
Experimental: Each test sample of an amorphous compound 1 prepared in a modification method, an amorphous compound 2 obtained by forming a free base of the amorphous compound 1 into hydrochloride in the same method as in Example 1 of Patent Literature 1, a crystal of the compound 1, which was prepared by the method described in Example 1 of the present specification, was charged into a desiccator at a humidity of 66% RH that was prepared by an aqueous saturated sodium nitrite solution by each amount of 100 mg and left stood at 20° C. Change in weights of each test sample was measured with time and a weight increase ratio was calculated.

[4] = 66% RH, 20° C., after 7 days, listed as crystal of the compound 1
[5] = 66% RH, 20° C., after 7 days, listed as amorphous compound 1

SMILES	Purity (60° C., sealed) After 4 weeks ([1]; 60° C., after 4 weeks) [%]	impurity / area value of an impurity peak, initial stage [1]	Purity (60° C., sealed) Initial stage value [1] [%]	Weight increase ratio (66% RH, 20° C.) After 7 days ([3]; 66% RH, 20° C., after 7 days) [%]	purity After 7 days (66% RH, 20° C.) ([3]; 66% RH, 20° C., after 7 days) [%]	Weight increase ratio (66% RH, 20° C.) Initial stage value [3]	purity, Initial stage value (66% RH, 20° C. test) [3] [%]	further results
Cc1cc2ncc(C(=O)NCC(C)(C)NCC(=O)N3CCC[C@H]3C#N)cn2n1 [Crystal of compound 1, N-[2-({2-[(2S)-2-cyanopyrrolidine-1-yl]-2-oxoethyl}amino)-2-methylpropyl]-2-methylpyrazolo[1,5-a]pyrimidine-6-carboxamide]	100.0	not observed to contain an impurity	100.0	0.01	100.0	0	100.0	Purity (60° C., sealed) After 4 weeks ([1]; 60° C., after 4 weeks, listed as crystal of the compound 1): not changed; Solubility (20° C.) class ([2]; 20° C.): very soluble; solubility class according to the Japanese Pharmacopoeia ([2]; water): very soluble; solubility ([2]; water, water, 20° C., read-out: Solubility (20° C.)): > 1000 mg/mL; solubility ([2]; water, water, water, read-out: degree of solubility to water): ≥ 1000 mg/mL; hygroscopicity (in words) ([3]; 66% RH, 20° C., after 7 days): hygroscopicity was not observed; Weight increase ratio (66% RH, 20° C.) After 7 days [3, 4]: 0.01%; purity After 7 days (66% RH, 20° C.) [3, 4]: change in the purity was also not recognized
Cc1cc2ncc(C(=O)NCC(C)(C)NCC(=O)N3CCC[C@H]3C#N)cn2n1 [Amorphous compound 2]	96.1	0.6%	98.8	1.7	90.5	0	97.9	Purity (60° C., sealed) After 4 weeks ([1]; 60° C., after 4 weeks, listed as amorphous compound 2): 96.1%; area value of an impurity peak after 4 weeks ([1]; 60° C., sealed, after 4 weeks): 3.1%; Purity (60° C., sealed) Initial stage value ([1]; listed as amorphous compound 2): 98.8%
Cc1cc2ncc(C(=O)NCC(C)(C)NCC(=O)N3CCC[C@H]3C#N)cn2n1 [Amorphous compound 1, N-[2-({2-[(2S)-2-cyanopyrrolidine-1-yl]-2-oxoethyl}amino)-2-methylpropyl]-2-methylpyrazolo[1,5-a]pyrimidine-6-carboxamide]	99.4	not observed to contain an impurity	100.0	1.7	99.8	0	100.0	Purity (60° C., sealed) After 4 weeks ([1]; 60° C., after 4 weeks, listed as amorphous compound 1): 99.4%; Weight increase ratio (66% RH, 20° C.) After 7 days [3, 5]: 1.7%; purity After 7 days (66% RH, 20° C.) [3, 5]: 99.8%
